Reference: the NIST ThermoML archive (doi:10.1021/je050328d)
Values joined by “and” are separate entries in the source; they are usually repeats but may differ in a detail not shown here. Equal entries are not always repeated.

Conditions: meniscus disappearance in a closed cell

CC(C)C [2-methylpropane]
Conditions | mass density
390.4 K, Liquid | 388.9 kg/m3
391.4 K, Gas | 90.6 kg/m3
393.73 K, Gas | 98.2 kg/m3
394.98 K, Gas | 101.1 kg/m3
397.49 K, Liquid | 358.7 kg/m3
398.81 K, Gas | 114.2 kg/m3
400.69 K, Liquid | 341.9 kg/m3
402.34 K, Liquid | 330.3 kg/m3
404.54 K, Gas | 142 kg/m3
405.22 K, Liquid | 308.1 kg/m3
406.17 K, Gas | 160.4 kg/m3
406.71 K, Liquid | 289.4 kg/m3
406.96 K, Liquid | 284.3 kg/m3
407.03 K, Gas | 173.9 kg/m3
407.21 K, Gas | 179.1 kg/m3
407.52 K, Liquid | 271 kg/m3
407.65 K, Gas | 192.9 kg/m3
407.75 K, Liquid | 244.3 kg/m3
407.76 K, Gas | 202.3 kg/m3
407.79 K, Gas | 219.3 kg/m3 and 225.4 kg/m3
407.8 K, Liquid | 229.4 kg/m3
